From patent publication US8791162B2, “Cathepsin cysteine protease inhibitors” (Merck Sharp & Dohme Corp., priority 2011, dated 2014)

How the values were obtained:
[1] = Rhesus IV Pharmacokinetics; assay type: in vivo, rhesus monkeys; details: for % AUC Extrap. / AUC(0-inf) / C0 / AUC / clearance / Vd / half-life: male rhesus monkeys; for concentration at 0.5 h: 0.50 hours; for AUC: read-out: AUC(0-x); for clearance: read-out: Cl (plasma clearance); for Vd: read-out: Vdss; for half-life: read-out: t½ (converted)
Description: The study was conducted in male rhesus monkeys (n=4) via the intravenous route using a deuteriated (D6-Odanacatib, or D6-ODN) and non-deuteriated (D0-Odanacatib, or D0-ODN) forms of odanacatib. The dosing solution was prepared in DMSO at a concentration of 7.5 mg/mL and the dose volume was 0.1 mL/kg. Each monkey was administered a 0.75 mg/kg dose each of D6-ODN and D0-ODN as a mixture. Animals were fasted overnight prior to dosing. The dose was administered via the saphenous vein. […] Plasma was stored at −70° C. until analysis.
The lower limit of quantitation was 0.48 nM.
Pharmacokinetic parameters were obtained using non-compartmental methods (Watson®). The plasma clearance (CLP) was calculated as the IV dose divided by the area under the plasma concentration versus time curve (AUC0-∞). AUC was determined using logarithmic trapezoidal interpolation.

human Cat K = molecular target: T1, human Cat K (Homo sapiens, UniProt P43235); details: human Cat K vs other human cathepsins; cited from earlier work
T1 sequence (P43235 115-329): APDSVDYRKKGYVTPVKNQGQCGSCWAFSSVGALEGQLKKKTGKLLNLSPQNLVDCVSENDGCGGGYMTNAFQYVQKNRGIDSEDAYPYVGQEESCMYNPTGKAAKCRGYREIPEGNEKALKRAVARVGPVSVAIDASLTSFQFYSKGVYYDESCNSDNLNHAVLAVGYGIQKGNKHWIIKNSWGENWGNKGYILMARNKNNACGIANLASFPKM

[2] = rhesus monkey, in vivo, po, 2.5 mg/kg
Description: The pharmacokinetic evaluation was carried out following oral administration to monkeys of the following ODN forms and formulations: D6-ODN spray-dried formulation (A), D6-ODN conventional formulation (B), D0-ODN spray-dried formulation (C) and D0-ODN conventional formulation (D).
The deuterated analog of odanacatib (D6-ODN) as well as ODN (D0-ODN) were prepared either as spray-dried or conventional (crystalline) formulations for pharmacokinetic study in monkeys. The spray-dried form was suspended in water, while the crystalline drug was dissolved in Imwitor:Tween for oral administration to monkeys. Spray-dried D6-ODN (A), crystalline D6-ODN (B), spray-dried D0-ODN (C) and crystalline D0-ODN (D) were dosed to monkeys (n=4) in a cross-over fashion. Each monkey was administered a ˜2.5 mg/kg dose each of forms B and D as a mixture in period one, and forms C and A were then dosed after a washout period. […]
The concentrations of D6-ODN and D0-ODN in plasma were determined by LC-MS/MS in the positive ion mode using the Turbo Ion Spray interface. […] Quantification was based on selected reaction monitoring of the following precursor/product ion pairs: m/z 526.3→313.0 (D0-ODN); m/z 532.2→313.2 (D6-ODN); m/z 538.3→325.2 (^13C12-ODN). The lower limit of quantitation was 1.9 nM. […]

[3] = rhesus monkey, plasma, male rhesus monkeys n=4, 0.75 mg/kg IV
[4] = rhesus monkey, plasma, 0.75 mg/kg IV

Structure (SMILES)	% AUC Extrap. ([1]; 0.75 mg/kg IV)	concentration at 0.08 h [1, 3]	concentration at 0.25 h [1, 3]	concentration at 0.5 h [1, 3]	concentration at 1 h [1, 3]	concentration at 4 h [1, 3]	concentration at 8 h [1, 3]	concentration at 12 h [1, 3]	concentration at 24 h [1, 3]	concentration at 30 h [1, 3]	concentration at 48 h [1, 3]	AUC(0-inf) [1, 4]	C0 [1, 4]	AUC [1, 4]	clearance [1, 4]	Vd [1, 4]	half-life [1, 4]	further results
CC(C)(F)C[C@H](N[C@@H](c1ccc(-c2ccc(S(C)(=O)=O)cc2)cc1)C(F)(F)F)C(=O)NC1(C#N)CC1 [Example D0-ODN, N^1-(1-cyanocyclopropyl)-4-fluoro-N^2-{(1S)-2,2,2-trifluoro-1-[4′-(methylsulfonyl)-1,1′-biphenyl-4-yl]ethyl}-L-leucinamide, reference compound]	0.25%	1020 nM	947 nM	872 nM	854 nM	462 nM	250 nM	130 nM	14.5 nM	6.22 nM	1.22 nM	5.73 µM·h	1080 nM	5.71 µM·h	4.6 mL/min/kg	1.9 L/kg	222 min	selectivity against all other known human cathepsins (human Cat K): ≥ 300 fold
[2H]C([2H])([2H])C(F)(C[C@H](N[C@@H](c1ccc(-c2ccc(S(C)(=O)=O)cc2)cc1)C(F)(F)F)C(=O)NC1(C#N)CC1)C([2H])([2H])[2H] [Example D6-ODN, (2S)—N-(1-cyanocyclopropyl)-5,5,5-trideuterio-4-fluoro-4-(trideuteriomethyl)-2-[[(1S)-2,2,2-trifluoro-1-[4-(4-methylsulfonylphenyl)phenyl]ethyl]amino]pentanamide]	1.7%	894 nM	839 nM	793 nM	831 nM	633 nM	633 nM	515 nM	273 nM	208 nM	70.7 nM	18 µM·h	933 nM	17.7 µM·h	1.4 mL/min/kg	1.7 L/kg	960 min	increase in plasma elimination half-life of ODN by deuterium substitution [2]: about 2.5 fold; concentration at 72 h ([1]; rhesus monkey, plasma, male rhesus monkeys n=4, 0.75 mg/kg IV, 72.00 hours): 28.4 nM; concentration at 96 h ([1]; rhesus monkey, plasma, male rhesus monkeys n=4, 0.75 mg/kg IV, 96.00 hours): 13.8 nM; higher exposure compared to D0-ODN ([1]; rhesus monkeys, 0.75 mg/kg IV): 3 fold; longer half-life compared to D0-ODN ([1]; rhesus monkeys, 0.75 mg/kg IV): 4 fold; lower clearance compared to D0-ODN ([1]; rhesus monkeys, 0.75 mg/kg IV): 3 fold
